Test results from patent publication US20040110681A1, “Method to identify targeting molecules” (priority 2002, published 2004).

Tested on: brain tissue
Assay: Individual peptide variants of A3 on phage, brain selectivity index vs T7-lacZ
Assay type: in vivo, FVB or BALB/c mice
Details: 2 hours circulation; for Brain Targeting Activity: 0.5-1×10^10 pfu co-injected with T7-lacZ; for Selectivity index (BALB/C mice) / Selectivity index (FVB female): brain tissue; for Selectivity index (FVB female): FVB female mice
Method: In this example, various individual peptide variants of A3 were tested in vivo for their ability to target brain or other tissues. […] The phage contents of each organ were determined by plaque assay in the presence of X-gal (500 μg/mL) in top agar.
Thus, selectively indices of less than 10 are considered low, those between 10 and […] are considered moderate and those over 100 are considered high.

Row | Substance | Brain Targeting Activity | Selectivity index (BALB/C mice) | Brain Targeting Activity (listed as A4G) | Selectivity index (FVB female) | Brain Targeting Activity (listed as A2G)
1 | CAGDSMCY [reference compound] | negative and No | 0.9 | – | – | –
2 | CAGGLCY | No | – | loss of brain targeting activity | 0.9 | –
3 | CALCY | No | – | – | 0.8 | –
4 | CDITEYC [reference compound] | No | 1 | – | 0.4 | –
5 | CGADALCY | No | 1 | – | – | –
6 | CGALCY | No | – | – | 0.8 | –
7 | CGFDMPC [reference compound] | No | – | – | 0.5 | –
8 | CGGALCY | No | – | – | 0.7 | loss of brain targeting activity
9 | CLCY | No | – | – | 3.5 | –
10 | CPADCY [reference compound] | No | – | – | 0.3 | –
11 | CRDVNECD [reference compound] | No | 1 | – | 0.3 | –
12 | CYGDPC [reference compound] | No | – | – | 0.8 | –
13 | YCDAPC [reference compound] | No | – | – | 0.7 | –
